# Laboratory results from patent US11180504B2 (ORCHID PHARMA LTD., priority 2016, dated 2021).
# Legend:
# [1] = system: carbapenemase producing K. pneumoniae; assay: MIC by broth micro-dilution (CLSI), carbapenemase producing K. pneumoniae; type: cell-based, Klebsiella pneumoniae; settings: Klebsiella pneumoniae, ATCCBAA1705, KPC-2 K. pneumoniae ATCC BAA-1705; read-out: MIC
# [2] = system: extended spectrum β lactamase (ESBL) SHV18 producing Klebsiella pneumoniae; assay: MIC by broth micro-dilution (CLSI), ESBL SHV18 producing K. pneumoniae; type: cell-based; settings: Klebsiella pneumoniae, ATCC700603, 22 h, ESBL +ve (SHV-18) K. pneumoniae ATCC700603; read-out: MIC
# [3] = system: methicillin-sensitive Staphylococcus aureus; assay: MIC by broth micro-dilution (CLSI), methicillin-sensitive S. aureus; type: cell-based; settings: Staphylococcus aureus, ATCC 29213 / MSSA, MSSA S. aureus ATCC29213; read-out: MIC
# [4] = system: carbapenem sensitive Pseudomonas aeruginosa; assay: MIC by broth micro-dilution (CLSI), carbapenem sensitive P. aeruginosa; type: cell-based; settings: Pseudomonas aeruginosa, ATCC27853, Meropenem susceptible P. aeruginosa ATCC27853; read-out: MIC
# [5] = system: carbapenem sensitive Escherichia coli; assay: MIC by broth micro-dilution (CLSI), carbapenem sensitive E. coli; type: cell-based; settings: Escherichia coli, ATCC25922, ESBL −ve E. coli ATCC25922; read-out: MIC
SMILES,MIC [1] [µg/mL],MIC [2] [µg/mL],MIC [3] [µg/mL],MIC [4] [µg/mL],MIC [5] [µg/mL]
C[C@@H](NC(=O)OCC(F)(F)F)[C@H]1C(=O)N2C(C(=O)O)=C(S[C@@H]3CN[C@H](CNS(N)(=O)=O)C3)[C@H](C)[C@H]12 [Example 52],> 128,128,1,> 128,8
C[C@@H](NS(=O)(=O)C(F)(F)F)[C@H]1C(=O)N2C(C(=O)O)=C(S[C@@H]3CN[C@H](CNS(N)(=O)=O)C3)[C@H](C)[C@H]12 [Example 19],> 128,8,1,128,1
C[C@@H](NC(=O)C(F)F)[C@H]1C(=O)N2C(C(=O)O)=C(S[C@@H]3CN[C@H](C(=O)NCCO)C3)[C@H](C)[C@H]12 [Example 104],4,1,4,128,0.5
C[C@@H](NC(=O)C(F)F)[C@H]1C(=O)N2C(C(=O)O)=C(S[C@@H]3CN[C@H](C(=O)N4CC[C@H](NC(=O)C(F)(F)CN)C4)C3)[C@H](C)[C@H]12 [Example 147],4 to 8,2,2,64 to 128,1
CNCC(=O)N[C@H](C)[C@H]1C(=O)N2C(C(=O)O)=C(S[C@@H]3CN[C@H](C(=O)N4CC[C@H](n5cc(CN)nn5)C4)C3)[C@H](C)[C@H]12 [Example 178],4,4,32,4,2
C[C@@H](NC(=O)C(F)F)[C@H]1C(=O)N2C(C(=O)O)=C(Sc3nc(-c4ccncc4)cs3)[C@H](C)[C@H]12 [Example 88],> 128,> 128,0.25,> 128,128
CNCCC(=O)N[C@H](C)[C@H]1C(=O)N2C(C(=O)O)=C(S[C@@H]3CN[C@H](C(=O)N(C)C)C3)[C@H](C)[C@H]12 [Example 166],8,8,64,32,4
C[C@@H](NC(=O)OCC(F)F)[C@H]1C(=O)N2C(C(=O)O)=C(S[C@@H]3CN[C@H](C(=O)N(C)C)C3)[C@H](C)[C@H]12 [Example 41],16,16,2,> 128,1
CNC(=O)[C@@H]1C[C@H](N)CN1C(=O)[C@@H]1C[C@H](SC2=C(C(=O)O)N3C(=O)[C@H]([C@@H](C)NC(=O)C(F)F)[C@H]3[C@H]2C)CN1 [Example 141],4 to 8,4 to 8,4 to 8,64,1
C[C@@H](NC(=O)C(F)F)[C@H]1C(=O)N2C(C(=O)O)=C(S[C@@H]3CN[C@H](C(=O)N4CC[C@H](NC5CC5)C4)C3)[C@H](C)[C@H]12 [Example 170],8,4,2,32,1
CNC[C@@H]1C[C@H](N)CN1C(=O)[C@@H]1C[C@H](SC2=C(C(=O)O)N3C(=O)[C@H]([C@@H](C)NC(=O)C(F)F)[C@H]3[C@H]2C)CN1 [Example 185],16,64,2,64,2
C[C@@H](NC(=O)CC#N)[C@H]1C(=O)N2C(C(=O)O)=C(S[C@@H]3CN[C@H](C(=O)N(C)C)C3)[C@H](C)[C@H]12 [Example 128],8,8,16,64,4
C[C@H]1C(S[C@@H]2CN[C@H](C(=O)N(CCO)CCO)C2)=C(C(=O)O)N2C(=O)[C@H]([C@@H](C)NC(=O)C(F)F)C12 (stereo partly shown) [Example 140],2,1,2,32,0.5
C[C@@H](NC(=O)[C@H]1CCCN1)[C@H]1C(=O)N2C(C(=O)O)=C(S[C@@H]3CN[C@H](C(=O)N(C)C)C3)[C@H](C)[C@H]12 [Example 227],4,8,64,32,2
C[C@@H](NC(=O)C(F)F)[C@H]1C(=O)N2C(C(=O)O)=C(S[C@@H]3CN[C@H](C(=O)N4C[C@@H](N)C[C@H]4CN)C3)[C@H](C)[C@H]12 [Example 183],16,32,8,64,2
C[C@@H](NCC(=O)O)[C@H]1C(=O)N2C(C(=O)O)=C(S[C@@H]3CN[C@H](C(=O)N(C)C)C3)[C@H](C)[C@H]12 [Example 99],64,16,128,16,64
CC(=O)OCC(=O)N[C@H](C)[C@H]1C(=O)N2C(C(=O)O)=C(S[C@@H]3CN[C@H](C(=O)N(C)C)C3)[C@H](C)[C@H]12 [Example 26],8,4 to 8,4,128,1

# Further lines, results first:
MIC [1] [µg/mL],MIC [2] [µg/mL],MIC [3] [µg/mL],MIC [4] [µg/mL],MIC [5] [µg/mL],SMILES
4,16,32,4,1,CNCC(=O)N[C@H](C)[C@H]1C(=O)N2C(C(=O)O)=C(S[C@@H]3CN[C@H](C(=O)N4C[C@@H](N)C[C@H]4CNS(N)(=O)=O)C3)[C@H](C)[C@H]12 [Example 216]
8,8,4,128,1,C[C@@H](NS(=O)(=O)C(F)(F)F)[C@H]1C(=O)N2C(C(=O)O)=C(S[C@@H]3CN[C@H](C(=O)N4CCN(C)CC4)C3)[C@H](C)[C@H]12 [Example 25]
8,8,2,> 128,1,C[C@@H](NC(=O)C(F)F)[C@H]1C(=O)N2C(C(=O)O)=C(S[C@@H]3CN[C@H](C(=O)N4CCC(F)(F)CC4)C3)[C@H](C)[C@H]12 [Example 76]
8,4,1,16,1,C[C@@H](NC(=O)C(F)F)[C@H]1C(=O)N2C(C(=O)O)=C(S[C@@H]3CN[C@H](C(=O)N4CC[N+](C)(CC(N)=O)CC4)C3)[C@H](C)[C@H]12 [Example 46]
16,4,1,4,1,C[C@@H](NC(=O)C(F)F)[C@H]1C(=O)N2C(C(=O)O)=C(S[C@@H]3CN[C@H](C(=O)N4CC[N+](C)(C)CC4)C3)[C@H](C)[C@H]12 [Example 45]
8,32,32,8,4,CNCC(=O)N[C@H](C)[C@H]1C(=O)N2C(C(=O)O)=C(S[C@@H]3CN[C@H](C(=O)N4CC[C@H](N)C4)C3)[C@H](C)[C@H]12 [Example 129]
4,4,1,16,0.5,C[C@@H](NC(=O)C(F)F)[C@H]1C(=O)N2C(C(=O)O)=C(S[C@@H]3CN[C@H](C(=O)N4CCCNCC4)C3)[C@H](C)[C@H]12 [Example 162]
2,2,32,4,2,CNCC(=O)N[C@H](C)[C@H]1C(=O)N2C(C(=O)O)=C(S[C@@H]3CN[C@H](C(=O)N4CCN(CCN)CC4)C3)[C@H](C)[C@H]12 [Example 221]
8,64,8,32,4,CCCCS(=O)(=O)N[C@H](C)[C@H]1C(=O)N2C(C(=O)O)=C(S[C@@H]3CN[C@H](C(=O)N(C)C)C3)[C@H](C)[C@H]12 [Example 18]
4,2,16,> 128,1,CCS(=O)(=O)N[C@H](C)[C@H]1C(=O)N2C(C(=O)O)=C(S[C@@H]3CN[C@H](C(=O)N(C)C)C3)[C@H](C)[C@H]12 [Example 10]
4,4,1,8,0.5,C[C@@H](NC(=O)C(F)F)[C@H]1C(=O)N2C(C(=O)O)=C(S[C@@H]3CN[C@H](C(=O)N4CC[C@H](NC(=O)CN)C4)C3)[C@H](C)[C@H]12 [Example 121]
4,4,64,4,4,C[C@@H](NC(=O)[C@H]1CCCN1)[C@H]1C(=O)N2C(C(=O)O)=C(S[C@@H]3CN[C@H](C(=O)N4CC[C@@H](N)C4)C3)[C@H](C)[C@H]12 [Example 206]
8,4,32,16,4,C[C@@H](NC(=O)CN)[C@H]1C(=O)N2C(C(=O)O)=C(S[C@@H]3CN[C@H](C(=O)N(C)C)C3)[C@H](C)[C@H]12 [Example 44]
16,16,16,16,4,C[C@@H](NS(C)(=O)=O)[C@H]1C(=O)N2C(C(=O)O)=C(S[C@@H]3CN[C@H](C(=O)N4CC[N+](C)(CC(N)=O)CC4)C3)[C@H](C)[C@H]12 [Example 39]
8,16,128,16,2,CNCC(=O)N[C@H](C)[C@H]1C(=O)N2C(C(=O)O)=C(S[C@@H]3CN[C@H](C(=O)N4CC[C@@H](NC)C4)C3)[C@H](C)[C@H]12 [Example 179]
